Some test systems named below: NCI-H23; HOP-92; SK-MEL-5; NCI-H460; 786-0; ACHN; SK-MEL-2; UACC-257; RPMI-8226; OVCAR-4; HOP-62; OVCAR-3; SNB-75; MDA-MB-231; SK-OV-3; TK-10; EKVX; SF-295; Malme-3M.
Test in all cases: NCI-60 cell line screen, 48 h

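All cell lines were grown in 96-well plates and treated with compound for 48 hours. GI50: concentration for 50% inhibition of growth.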 Calls of active or inactive are those of the source. Rule as the data show it: active = GI50 up to about 1.1 µM and inactive = higher.

Take `CCN(CC)c1ccc2cc(C(N)=O)c(=N)oc2c1`: the GI50 was 42.8 µM (inactive) in the assay on NCI-H23; 24 µM (inactive) with HOP-92; 32.5 µM (inactive) in the assay on SK-MEL-5; 27 µM (inactive) in the assay on NCI-H460; 30.1 µM (inactive) in the assay on 786-0; 32.7 µM (inactive) in the assay with ACHN. For the same molecule, the GI50 was 21.3 µM (inactive) in the assay on SK-MEL-2; > 100 µM (inactive) in the assay on UACC-257; 96.6 µM (inactive) in the assay with RPMI-8226; 23.6 µM (inactive) with OVCAR-4; 38.6 µM (inactive) in the assay on HOP-62; 31.6 µM (inactive) in the assay on OVCAR-3. The GI50 is 26.5 µM (inactive) in the assay on SNB-75, 32.1 µM (inactive) in the assay on MDA-MB-231 and 36.6 µM (inactive) with SK-OV-3.

For `O=C1C(F)=CC(COC(c2ccccc2)(c2ccccc2)c2ccccc2)OC1n1cc(F)c(=O)[nH]c1=O` (centres undefined), the GI50 is 1.77 µM (inactive) in the assay with NCI-H23; 2.11 µM (inactive) in the assay with HOP-92; 1.35 µM (inactive) with SK-MEL-5; 1.34 µM (inactive) with TK-10; 7.89 µM (inactive) with EKVX; 2.62 µM (inactive) in the assay with NCI-H460. Further, the GI50 with SF-295 is 2.2 µM (inactive); with 786-0, 1.97 µM (inactive); in the assay on ACHN, 1.64 µM (inactive); in the assay with Malme-3M, 3.33 µM (inactive); in the assay with SK-MEL-2, 2.91 µM (inactive); with UACC-257, 1.96 µM (inactive). The GI50 in the assay on RPMI-8226 is 0.413 µM (active); with OVCAR-4, 3.99 µM (inactive); with HOP-62, 3.18 µM (inactive); in the assay on OVCAR-3 it was 1.48 µM (inactive); in the assay with SNB-75 it was 2.58 µM (inactive); in the assay with MDA-MB-231 it was 3.26 µM (inactive). In addition, in the assay on SK-OV-3, the GI50 is 7.05 µM (inactive).

With `O=C(c1ccco1)N(C(=O)N1CCN(c2ccccc2)CC1)S(=O)(=O)c1ccccc1`, the GI50 is 23.7 µM (inactive) in the assay with NCI-H23; 27.3 µM (inactive) in the assay with HOP-92; 24.4 µM (inactive) in the assay on SK-MEL-5; 33.3 µM (inactive) with TK-10; 22.4 µM (inactive) in the assay with EKVX; 32.3 µM (inactive) with NCI-H460. Besides, the GI50 is 43.6 µM (inactive) in the assay on SF-295; 32.1 µM (inactive) in the assay with 786-0; 24.7 µM (inactive) in the assay on ACHN; 29 µM (inactive) in the assay with Malme-3M; 18.5 µM (inactive) with SK-MEL-2; 32 µM (inactive) in the assay with UACC-257. The GI50 in the assay on OVCAR-4 was 27.5 µM (inactive); with HOP-62, 39.1 µM (inactive); in the assay with OVCAR-3, 26.9 µM (inactive); in the assay on SNB-75 it was 24.5 µM (inactive); in the assay with MDA-MB-231 it was 36.9 µM (inactive); in the assay with SK-OV-3, > 100 µM (inactive).

For `O=C(O)c1nn[nH]c1S`, the GI50 in the assay with NCI-H23 was > 100 µM (inactive); in the assay on HOP-92, 4.59 µM (inactive); in the assay with SK-MEL-5 it was > 100 µM (inactive); with EKVX it was > 100 µM (inactive); with NCI-H460, > 100 µM (inactive); with SF-295, > 100 µM (inactive). Further, the GI50 in the assay with 786-0, in the assay with ACHN, in the assay on Malme-3M, in the assay with SK-MEL-2, in the assay on UACC-257 and in the assay with RPMI-8226 was > 100 µM (inactive) throughout. Further, the GI50 in the assay with OVCAR-4, with HOP-62, with OVCAR-3, with SNB-75, in the assay on MDA-MB-231 and with SK-OV-3 was > 100 µM (inactive) each time.

For the molecule `CCOC(=O)C1=CN=C2C(=O)N(c3ccccc3)N(C)C2(C)C1=N` (centres undefined), the GI50 in the assay on NCI-H23, with HOP-92, in the assay on SK-MEL-5, with TK-10, in the assay with EKVX and in the assay on NCI-H460 was > 100 µM (inactive) each time. The GI50 with SF-295, in the assay on 786-0, in the assay with ACHN, in the assay on Malme-3M, in the assay on SK-MEL-2 and with UACC-257 was > 100 µM (inactive) throughout. Further, the GI50 in the assay with RPMI-8226, in the assay on OVCAR-4, in the assay on OVCAR-3, in the assay with SNB-75, in the assay with MDA-MB-231 and in the assay with SK-OV-3 was > 100 µM (inactive) in each case.

Consider `CCC1(CC)CC(=NNS(=O)(=O)c2ccc(C)cc2)C1`, for which the GI50 in the assay on NCI-H23, with HOP-92, in the assay on SK-MEL-5, in the assay on TK-10, in the assay with EKVX and in the assay on NCI-H460 was > 100 µM (inactive) in each case. The GI50 with SF-295, in the assay on 786-0, with ACHN, with Malme-3M, in the assay with SK-MEL-2 and in the assay with UACC-257 was > 100 µM (inactive) throughout. In addition, the GI50 in the assay with OVCAR-4, with OVCAR-3, in the assay with SNB-75, with MDA-MB-231 and with SK-OV-3 was > 100 µM (inactive) each time.

Turning to `COc1ccc(C(=O)Cn2c(C(=O)/C=C/c3ccco3)nc3ccccc32)cc1`, the GI50 in the assay with NCI-H23 is 42.4 µM (inactive); in the assay on HOP-92, 51.4 µM (inactive); in the assay with SK-MEL-5, 26.7 µM (inactive); in the assay with TK-10, 44.8 µM (inactive); in the assay with NCI-H460, 23.5 µM (inactive); in the assay with 786-0, 31 µM (inactive). Further, the GI50 is 42.8 µM (inactive) in the assay on ACHN; 35.2 µM (inactive) with Malme-3M; 17.5 µM (inactive) with SK-MEL-2; 27.4 µM (inactive) in the assay with UACC-257; 19.3 µM (inactive) in the assay on RPMI-8226; 37.1 µM (inactive) with OVCAR-4. Besides, the GI50 with HOP-62 was 46 µM (inactive); with OVCAR-3, 24.9 µM (inactive); in the assay with SNB-75 it was 76.6 µM (inactive); in the assay with MDA-MB-231 it was 28.7 µM (inactive); with SK-OV-3 it was 37.3 µM (inactive).

For the molecule `O=S1(=O)N=C(NCc2c[nH]c3ccccc23)N(c2ccccc2)c2ccncc21`, the GI50 is > 100 µM (inactive) in the assay with NCI-H23; 22.6 µM (inactive) in the assay with HOP-92; > 100 µM (inactive) in the assay on SK-MEL-5; > 100 µM (inactive) in the assay with TK-10; 64.9 µM (inactive) with EKVX; > 100 µM (inactive) with NCI-H460. Besides, the GI50 was > 100 µM (inactive) in the assay on SF-295; 53.3 µM (inactive) in the assay on 786-0; > 100 µM (inactive) in the assay on ACHN; > 100 µM (inactive) in the assay with Malme-3M; > 100 µM (inactive) with SK-MEL-2; > 100 µM (inactive) in the assay with UACC-257. In addition, the GI50 in the assay with OVCAR-4 was > 100 µM (inactive); in the assay on HOP-62 it was 30 µM (inactive); with OVCAR-3, > 100 µM (inactive); with SNB-75, 16.8 µM (inactive); in the assay on MDA-MB-231, > 100 µM (inactive); with SK-OV-3 it was 40.2 µM (inactive).

As to `CCCCCCCCCCCCC(O)C(=O)O` (centres undefined), the GI50 in the assay on NCI-H23, in the assay on HOP-92, in the assay on SK-MEL-5, in the assay on TK-10, with NCI-H460 and in the assay with SF-295 was > 100 µM (inactive) throughout. Besides, the GI50 with 786-0, in the assay with ACHN, with Malme-3M, in the assay on SK-MEL-2, with UACC-257 and in the assay with RPMI-8226 was > 100 µM (inactive) each time. Further, the GI50 in the assay with OVCAR-4, in the assay with HOP-62, in the assay on OVCAR-3, with SNB-75, in the assay on MDA-MB-231 and in the assay with SK-OV-3 was > 100 µM (inactive) throughout.

Consider `Cc1[nH]c(=O)[nH]c(=S)c1C(=O)NC(C)(CO)CO`, for which the GI50 in the assay with NCI-H23, in the assay on HOP-92, with SK-MEL-5, with TK-10, in the assay on EKVX and with NCI-H460 was > 100 µM (inactive) each time. Besides, the GI50 in the assay with SF-295, with 786-0, in the assay on ACHN, in the assay on Malme-3M, in the assay on SK-MEL-2 and in the assay on UACC-257 was > 100 µM (inactive) each time. For the same molecule, the GI50 in the assay on OVCAR-4, in the assay with HOP-62, in the assay with OVCAR-3, with SNB-75, in the assay with MDA-MB-231 and with SK-OV-3 was > 100 µM (inactive) each time.

For the molecule `SC1=Nc2ccccc2-c2nc(-c3cccc(Cl)c3)cc(-c3ccccc3)c2C1`, the GI50 in the assay with NCI-H23 was 5.07 µM (inactive); in the assay with HOP-92, 1.09 µM (active); in the assay on SK-MEL-5, 26.8 µM (inactive); in the assay on EKVX it was 3.54 µM (inactive); in the assay with NCI-H460, 1.3 µM (inactive); in the assay with SF-295 it was 3.37 µM (inactive). Further, the GI50 in the assay on 786-0 was 0.971 µM (active); in the assay on ACHN, 0.811 µM (active); in the assay with Malme-3M, 4.35 µM (inactive); with SK-MEL-2 it was 5.25 µM (inactive); in the assay on UACC-257 it was 5.9 µM (inactive); in the assay with RPMI-8226 it was 3.2 µM (inactive). Further, the GI50 in the assay with OVCAR-4 is 0.347 µM (active); with HOP-62, 1.86 µM (inactive); in the assay with OVCAR-3, 3.4 µM (inactive); with SNB-75, 1.83 µM (inactive); in the assay with MDA-MB-231, 1.64 µM (inactive); in the assay with SK-OV-3 it was 2.11 µM (inactive).
